Results taken from article PMC4327817 (ACS chemical biology, 2014).
pEC50, pIC50: −log10 of the molar value. Like-named read-outs stand apart in the source and are kept apart here.

Experiments:
CBP = CBP (Homo sapiens, UniProt Q92793); test: C646 titration of CBP acetylation of H3/H4 under kcat conditions; type: biochemical
BxPC3 cells = test: Histone acetylation in BxPC3 cells after drug treatment; type: cell-based, human; details: for pEC50: read-out: apparent EC50 for activation; for Mean fold-change in acetylation: TSA 0.5 μM

Sequence of CBP (Q92793 whole entry): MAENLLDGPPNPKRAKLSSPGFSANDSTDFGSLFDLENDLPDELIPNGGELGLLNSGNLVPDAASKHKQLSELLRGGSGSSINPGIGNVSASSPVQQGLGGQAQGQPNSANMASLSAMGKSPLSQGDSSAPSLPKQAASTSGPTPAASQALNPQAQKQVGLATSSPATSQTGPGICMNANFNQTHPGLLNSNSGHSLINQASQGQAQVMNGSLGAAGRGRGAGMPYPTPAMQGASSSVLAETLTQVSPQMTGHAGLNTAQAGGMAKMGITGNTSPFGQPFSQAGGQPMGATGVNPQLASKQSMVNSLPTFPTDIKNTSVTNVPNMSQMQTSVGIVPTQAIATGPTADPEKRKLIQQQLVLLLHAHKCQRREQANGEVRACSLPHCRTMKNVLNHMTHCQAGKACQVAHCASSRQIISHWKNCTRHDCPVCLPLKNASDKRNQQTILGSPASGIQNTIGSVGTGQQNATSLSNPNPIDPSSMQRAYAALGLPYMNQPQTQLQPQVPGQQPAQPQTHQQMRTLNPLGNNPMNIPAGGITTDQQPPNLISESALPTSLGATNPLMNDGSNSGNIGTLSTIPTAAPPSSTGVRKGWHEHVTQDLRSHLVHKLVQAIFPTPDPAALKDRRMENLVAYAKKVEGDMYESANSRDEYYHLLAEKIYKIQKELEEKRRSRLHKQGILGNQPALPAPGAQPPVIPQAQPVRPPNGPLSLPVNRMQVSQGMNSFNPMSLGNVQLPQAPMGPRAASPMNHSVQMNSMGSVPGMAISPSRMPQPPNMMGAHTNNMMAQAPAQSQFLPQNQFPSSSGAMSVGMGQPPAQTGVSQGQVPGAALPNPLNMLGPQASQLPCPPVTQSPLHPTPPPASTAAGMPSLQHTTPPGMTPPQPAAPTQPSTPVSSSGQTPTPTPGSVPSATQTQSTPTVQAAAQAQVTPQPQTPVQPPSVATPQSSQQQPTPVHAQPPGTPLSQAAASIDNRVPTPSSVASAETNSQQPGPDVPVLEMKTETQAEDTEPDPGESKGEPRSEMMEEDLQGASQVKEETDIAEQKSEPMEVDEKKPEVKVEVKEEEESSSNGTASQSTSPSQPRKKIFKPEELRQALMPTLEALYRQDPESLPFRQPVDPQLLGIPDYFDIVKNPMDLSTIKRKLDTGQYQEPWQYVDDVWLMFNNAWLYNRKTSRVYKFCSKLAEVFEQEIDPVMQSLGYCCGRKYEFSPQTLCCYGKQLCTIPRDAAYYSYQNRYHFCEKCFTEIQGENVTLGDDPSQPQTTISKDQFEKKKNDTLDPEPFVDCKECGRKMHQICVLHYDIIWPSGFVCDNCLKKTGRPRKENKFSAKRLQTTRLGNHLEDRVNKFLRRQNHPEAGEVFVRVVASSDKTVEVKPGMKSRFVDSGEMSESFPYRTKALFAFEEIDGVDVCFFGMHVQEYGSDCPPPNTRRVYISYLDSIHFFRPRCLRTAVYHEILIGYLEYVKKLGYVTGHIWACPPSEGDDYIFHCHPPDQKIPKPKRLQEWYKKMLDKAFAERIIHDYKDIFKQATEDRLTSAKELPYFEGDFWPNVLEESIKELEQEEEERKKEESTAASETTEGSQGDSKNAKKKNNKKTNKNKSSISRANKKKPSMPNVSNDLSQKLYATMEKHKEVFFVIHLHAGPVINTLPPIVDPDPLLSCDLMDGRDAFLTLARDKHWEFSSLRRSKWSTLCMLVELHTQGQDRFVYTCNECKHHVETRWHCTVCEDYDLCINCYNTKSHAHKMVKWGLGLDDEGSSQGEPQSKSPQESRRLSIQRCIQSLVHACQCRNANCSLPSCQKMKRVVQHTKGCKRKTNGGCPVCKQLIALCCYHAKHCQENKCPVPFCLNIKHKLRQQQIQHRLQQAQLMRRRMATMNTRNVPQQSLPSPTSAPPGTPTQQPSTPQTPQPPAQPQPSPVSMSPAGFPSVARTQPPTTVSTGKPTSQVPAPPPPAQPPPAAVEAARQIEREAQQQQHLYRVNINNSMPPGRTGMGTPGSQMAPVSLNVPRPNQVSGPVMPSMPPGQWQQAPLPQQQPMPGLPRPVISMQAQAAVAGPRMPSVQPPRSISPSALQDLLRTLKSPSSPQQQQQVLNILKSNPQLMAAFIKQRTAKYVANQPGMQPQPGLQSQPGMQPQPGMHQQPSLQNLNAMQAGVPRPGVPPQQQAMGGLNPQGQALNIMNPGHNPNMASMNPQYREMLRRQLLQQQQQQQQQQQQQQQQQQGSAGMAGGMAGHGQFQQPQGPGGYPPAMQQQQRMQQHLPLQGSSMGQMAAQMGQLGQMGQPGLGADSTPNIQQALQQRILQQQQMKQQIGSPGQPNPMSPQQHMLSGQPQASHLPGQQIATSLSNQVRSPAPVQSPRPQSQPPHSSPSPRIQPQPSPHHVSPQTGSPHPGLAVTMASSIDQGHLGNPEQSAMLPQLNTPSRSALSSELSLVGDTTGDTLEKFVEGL

SMILES: CC1=NN(c2ccc(C(=O)O)cc2)C(=O)/C1=C\c1ccc(-c2cc(C)c(C)cc2[N+](=O)[O-])o1 [C646]
- C646 concentration range inhibiting CBP (CBP; compared with p300): within the nanomolar range
- effect of C646 on CBP acetylation activity (CBP; kcat conditions, other sites mainly displayed an inhibitory effect): biphasic dependence for H3K18
- stimulation of acetylation in parental BxPC3 cells (BxPC3 cells; parental cells, compared with p300-depleted cells): ≤ 2.5 fold
- pEC50 (BxPC3 cells; site H3K18, 4 hours): ~6.40
- pEC50 (BxPC3 cells; site H3K23, 4 hours): ~6.40
- pIC50 (BxPC3 cells; read-out: apparent IC50 of inhibition, site H3K18, 4 hours): ~5.17

SMILES: CC(C)(CCCCCCCCCCC(C)(C)CC(=O)O)CC(=O)O [MEDICA 16, beta, beta’-tetramethylhexadecanedioic acid]
- effect of MEDICA 16 pretreatment on the acetylation response to C646 (BxPC3 cells; 5 μM MEDICA 16 for 24 hours prior to […] C646): muted stimulatory response to C646

SMILES: CC(/C=C/C(=O)NO)=C\[C@@H](C)C(=O)c1ccc(N(C)C)cc1 [TSA]
- Mean fold-change in acetylation (BxPC3 cells; site H3K9, 4 hours, after 16 hours of serum starvation): 3.02 fold
- Mean fold-change in acetylation (BxPC3 cells; site H3K9, 4 hours, no starvation): 68.56 fold
- increase of acetylation relative to C646 (BxPC3 cells; site H3K9, TSA versus C646): 42 fold
- Mean fold-change in acetylation (BxPC3 cells; site H3K14, 4 hours, after 16 hours of serum starvation): 1.65 fold
- Mean fold-change in acetylation (BxPC3 cells; site H3K14, 4 hours, no starvation): 2.412 fold
- Mean fold-change in acetylation (BxPC3 cells; site H3K18, 4 hours, after 16 hours of serum starvation): 1.94 fold
- Mean fold-change in acetylation (BxPC3 cells; site H3K23, 4 hours, after 16 hours of serum starvation): 1.78 fold
- Mean fold-change in acetylation (BxPC3 cells; site H3K23, 4 hours, no starvation): 2.83 fold
